Data from patent US7919634B2, “Fused thiophenes, articles, and methods thereof” (Corning Incorporated, priority 2009, dated 2011).
Like-named read-outs stand apart in the source and are kept apart here.

Assay: Solubility of selected FT4 and FT5 compounds in organic solvents (10 mg compound, stepwise 5 mL solvent additions, ultrasonic bath)
Format: physicochemical
Conditions: thermodynamic from solid
Procedure: Solubility of Selected FT4 And FT5 Compounds Table 1 provides a solubility comparison of some α-, α′-unsubstituted, β-, β′-alkyl substituted FT4 (and FT5), with some α-, α′-substituted, β-, β′-alkyl substituted FT4 (and FT5) compounds. General Procedure: 10 mg of a FT4 or FT5 compound was mixed with 5.0 mL of a specified solvent and then sealed in a screw-top glass vial. The resulting mixture was kept in an ultrasonic bath for 30 minutes at ambient temperature and then kept quiescent for 30 minutes to check whether a clear solution formed. If the mixture was still not clear after these 60 minutes, an additional 5.0 mL of the same solvent was added to the vial and the 60 minute mixing and standing procedure was repeated up to a total of 20 mL of solvent.

[1] = CH2Cl2, organic solvent or mixture, 10 mg compound in 5 mL CH2Cl2, ambient temperature, read-out: Solubility CH2Cl2
[2] = CH2Cl2, organic solvent or mixture, 10 mg compound in 10 mL CH2Cl2, ambient temperature, read-out: Solubility CH2Cl2
[3] = hexane, organic solvent or mixture, 10 mg compound in 5 mL hexane, ambient temperature, read-out: Solubility hexane
[4] = hexane, organic solvent or mixture, 10 mg compound in 10 mL hexane, ambient temperature, read-out: Solubility hexane
[5] = hexane, organic solvent or mixture, 10 mg compound in 15 mL hexane, ambient temperature, read-out: Solubility hexane
[6] = hexane, organic solvent or mixture, 10 mg compound in 20 mL hexane, ambient temperature, read-out: Solubility hexane
[7] = toluene, organic solvent or mixture, 10 mg compound in 5 mL toluene, ambient temperature, read-out: Solubility toluene
[8] = toluene, organic solvent or mixture, 10 mg compound in 10 mL toluene, ambient temperature, read-out: Solubility toluene
[9] = CH2Cl2, organic solvent or mixture, 10 mg compound in 15 mL CH2Cl2, ambient temperature, read-out: Solubility CH2Cl2
[10] = CH2Cl2, organic solvent or mixture, 10 mg compound in 20 mL CH2Cl2, ambient temperature, read-out: Solubility CH2Cl2
[11] = toluene, organic solvent or mixture, 10 mg compound in 15 mL toluene, ambient temperature, read-out: Solubility toluene
[12] = toluene, organic solvent or mixture, 10 mg compound in 20 mL toluene, ambient temperature, read-out: Solubility toluene

solubility at 60 min [1] [mg/mL]	solubility at 60 min [2] [mg/mL]	solubility at 60 min [3] [mg/mL]	solubility at 60 min [4] [mg/mL]	solubility at 60 min [5] [mg/mL]	solubility at 60 min [6] [mg/mL]	solubility at 60 min [7] [mg/mL]	solubility at 60 min [8] [mg/mL]	solubility at 60 min [9] [mg/mL]	solubility at 60 min [10] [mg/mL]	solubility at 60 min [11] [mg/mL]	solubility at 60 min [12] [mg/mL]	Structure (SMILES)
< 2	> 0.5	< 2	< 2	< 2	> 0.5	> 0.5	–	–	–	–	–	CCCCCCCCCCCCCc1c(-c2ccccc2)sc2c1sc1c3sc(-c4ccccc4)c(CCCCCCCCCCCCC)c3sc21
< 2	< 2	< 2	< 2	< 2	< 2	> 0.5	> 0.5	> 0.5	–	–	–	CCCCCCCCCCCCCCCCCc1c(-c2ccccc2)sc2c1sc1c3sc(-c4ccccc4)c(CCCCCCCCCCCCCCCCC)c3sc21
> 0.5	–	> 0.5	–	–	–	> 0.5	–	–	–	–	–	CCCCCCCCCCCCCc1c(-c2ccccc2)sc2c1sc1c2sc2c3sc(-c4ccccc4)c(CCCCCCCCCCCCC)c3sc21

Continued, molecule first:

Structure (SMILES)	solubility at 60 min [1] [mg/mL]	solubility at 60 min [2] [mg/mL]	solubility at 60 min [3] [mg/mL]	solubility at 60 min [4] [mg/mL]	solubility at 60 min [5] [mg/mL]	solubility at 60 min [6] [mg/mL]	solubility at 60 min [7] [mg/mL]	solubility at 60 min [8] [mg/mL]	solubility at 60 min [9] [mg/mL]	solubility at 60 min [10] [mg/mL]	solubility at 60 min [11] [mg/mL]	solubility at 60 min [12] [mg/mL]
CCCCCCCCCCCCCc1csc2c1sc1c3scc(CCCCCCCCCCCCC)c3sc21	< 2	> 0.5	< 2	< 2	< 2	< 2	< 2	> 0.5	–	–	–	–
CCCCCCCCCCCCCc1c(-c2cccs2)sc2c1sc1c3sc(-c4cccs4)c(CCCCCCCCCCCCC)c3sc21	> 0.5	–	< 2	< 2	< 2	< 2	> 0.5	–	–	–	–	–
CCCCCCCCCCCCCCCCCc1csc2c1sc1c3scc(CCCCCCCCCCCCCCCCC)c3sc21	< 2	< 2	< 2	< 2	< 2	< 2	< 2	< 2	< 2	< 2	< 2	< 2
CCCCCCCCCCCCCCCCCc1c(-c2cccs2)sc2c1sc1c3sc(-c4cccs4)c(CCCCCCCCCCCCCCCCC)c3sc21	< 2	< 2	< 2	< 2	< 2	< 2	< 2	< 2	< 2	> 0.5	> 0.5	> 0.5
CCCCCCCCCCCCCc1csc2c1sc1c2sc2c3scc(CCCCCCCCCCCCC)c3sc21	< 2	> 0.5	< 2	> 0.5	–	–	> 0.5	–	–	–	–	–
CCCCCCCCCCCCCc1c(-c2cccs2)sc2c1sc1c2sc2c3sc(-c4cccs4)c(CCCCCCCCCCCCC)c3sc21	> 0.5	–	< 2	< 2	< 2	< 2	> 0.5	–	–	–	–	–
